Assay results from patent publication US20210253575A1, “PYRROLIDINE AMINE COMPOUNDS FOR THE TREATMENT OF AUTOIMMUNE DISEASE” (Hoffmann-La Roche Inc., priority 2018, published 2021).

Molecular target: T1, human TLR8 (Homo sapiens, UniProt Q9NR97)
T1 sequence (Q9NR97 27-1041): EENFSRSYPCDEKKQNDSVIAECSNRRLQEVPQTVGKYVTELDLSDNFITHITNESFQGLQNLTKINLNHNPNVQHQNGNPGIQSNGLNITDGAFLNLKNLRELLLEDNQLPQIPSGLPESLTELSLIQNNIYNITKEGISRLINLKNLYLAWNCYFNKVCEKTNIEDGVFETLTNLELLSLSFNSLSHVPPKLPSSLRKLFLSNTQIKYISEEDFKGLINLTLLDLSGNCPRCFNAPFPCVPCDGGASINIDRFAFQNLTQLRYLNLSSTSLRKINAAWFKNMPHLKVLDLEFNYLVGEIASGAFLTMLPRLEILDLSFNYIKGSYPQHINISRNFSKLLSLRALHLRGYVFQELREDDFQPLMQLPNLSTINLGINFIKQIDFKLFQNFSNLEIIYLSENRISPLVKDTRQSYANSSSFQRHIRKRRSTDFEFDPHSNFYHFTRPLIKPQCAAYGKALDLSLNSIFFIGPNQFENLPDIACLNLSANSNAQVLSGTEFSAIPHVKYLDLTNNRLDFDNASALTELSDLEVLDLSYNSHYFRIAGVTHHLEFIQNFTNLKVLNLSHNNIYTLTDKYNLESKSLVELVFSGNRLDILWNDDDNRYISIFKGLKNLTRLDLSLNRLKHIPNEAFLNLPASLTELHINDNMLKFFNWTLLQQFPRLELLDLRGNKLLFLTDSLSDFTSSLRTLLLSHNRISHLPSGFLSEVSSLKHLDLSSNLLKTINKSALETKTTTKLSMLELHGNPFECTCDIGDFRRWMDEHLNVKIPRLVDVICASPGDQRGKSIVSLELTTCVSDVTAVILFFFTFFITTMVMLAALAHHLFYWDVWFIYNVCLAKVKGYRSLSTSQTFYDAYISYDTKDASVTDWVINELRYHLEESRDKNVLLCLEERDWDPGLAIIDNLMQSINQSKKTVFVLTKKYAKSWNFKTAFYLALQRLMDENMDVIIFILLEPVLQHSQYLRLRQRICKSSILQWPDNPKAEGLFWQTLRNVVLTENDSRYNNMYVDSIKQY
Assay: HEK293-Blue-hTLR-8 cells assay (SEAP reporter, R848 stimulation)
Type: cell-based
Conditions: HEK293-Blue-hTLR8 cells, R848 ligand, 20 hrs incubation
Summary of the method: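 Antagonism was measured in HEK293-Blue-hTLR8 cells with an NF-κB/AP-1-driven SEAP reporter. Cells were stimulated with R848 (10 μL of 60 uM stock) alongside compound (1% DMSO) for 20 hrs at 37° C. Supernatant SEAP was read with QUANTI-Blue after 2 hrs, absorbance at 620-655 nm.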

Structure (SMILES)	IC50 [nM]
N#Cc1ccc(N2CC(CN3CCNCC3)C3(CC3)C2)c2nccnc12 (centres unmarked) [Example 3, 8-[7-(piperazin-1-ylmethyl)-5-azaspiro[2.4]heptan-5-yl]quinoxaline-5-carbonitrile]	12
N#Cc1ccc(N2CC(CN3CC4CCC(C3)C4N)C3(CC3)C2)c2nccnc12 (centres unmarked) [Example 4, 8-[7-[(8-Amino-3-azabicyclo[3.2.1]octan-3-yl)methyl]-5-azaspiro[2.4]heptan-5-yl]quinoxaline-5-carbonitrile]	38
CN(C)[C@@H]1CCN(C[C@H]2CN(c3ccc(C#N)c4nccnc34)C[C@@H]2C(F)(F)F)C1 [Example 83, 8-[(3S,4R)-3-[[(3R)-3-(dimethylamino)pyrrolidin-1-yl]methyl]-4-(trifluoromethyl)pyrrolidin-1-yl]quinoxaline-5-carbonitrile]	65
CN1CCC2(CCN(C[C@H]3CN(c4ccc(C#N)c5nccnc45)C[C@@H]3C(F)(F)F)C2)C1 (stereo partly drawn) [Example 84, 8-[(3S,4R)-3-[(7-methyl-2,7-diazaspiro[4.4]nonan-2-yl)methyl]-4-(trifluoromethyl)pyrrolidin-1-yl]quinoxaline-5-carbonitrile]	57
CC1(CN)CCN(C[C@H]2CN(c3ccc(C#N)c4nccnc34)C[C@@H]2C(F)(F)F)C1 (stereo partly drawn) [Example 85, 8-[(3S,4R)-3-[[3-(aminomethyl)-3-methyl-pyrrolidin-1-yl]methyl]-4-(trifluoromethyl)pyrrolidin-1-yl]quinoxaline-5-carbonitrile]	75
